Test results published in patent EP4692062A1, “NOVEL AMIDE-BASED COMPOUND AND COMPOSITION COMPRISING SAME” (Amorepacific Corporation, priority 2023, dated 2024).

Key:
Format in all cases: biochemical
MMP-1 = biological target: T1, MMP-1 (Homo sapiens, UniProt P03956); test: MMP1 Inhibitor Screening Assay Kit (ab139443), colorimetric thiopeptide substrate, OD412; conditions: for remaining activity at 0.5 µM / remaining activity at 10 µM: remaining enzyme activity; for remaining activity at 0.5 µM: untreated group = 100%, compound at 0.5 uM, n=2; for inhibition at 10 µM / remaining activity at 10 µM: T-05~20 at 10 uM; for inhibition at 10 µM: read-out: MMP-1 (%) (inhibitory efficacy, high concentration); for remaining activity at 10 µM: read-out: MMP-1 (%) (enzyme activity, high concentration)
T1 construct: purchased Abchem (so in the source)
T1 sequence (P03956 100-269 limits assumed): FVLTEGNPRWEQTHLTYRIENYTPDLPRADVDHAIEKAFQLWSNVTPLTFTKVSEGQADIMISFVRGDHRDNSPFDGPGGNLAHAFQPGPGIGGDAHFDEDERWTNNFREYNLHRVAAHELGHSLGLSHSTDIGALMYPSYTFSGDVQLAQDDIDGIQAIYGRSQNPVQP
Method: Enzyme activity (%) at the same concentration was compared with treatment with 0.5 µM MMP-1 activity and 50 nM MMP-2 and MMP-9 activity (n=2). Here, enzyme activity (%) refers to the enzyme activity (%) of the experimental group when the untreated group is considered to have 100% enzyme activity.
To evaluate the effect of the new compound on the enzyme activity, the color change was measured by following the provided protocol using a kit sold by Abchem as follows.
As MMP activity increases, the substrate is decomposed and the OD412 level increases. Therefore, the change in OD412 level (OD value) per minute was measured and the value was obtained according to the enzyme activity calculation formula below. […] (ε=13,600 M^-1cm^-1 above pH 6.0)
New compound enzyme activity(%) = (Vnew compound/Vuntreated group)*100 [formula] V = change in OD value per minute

MMP-2 [1] = biological target: T2, MMP-2 (Homo sapiens, UniProt P08253); test: MMP2 Inhibitor Screening Assay Kit (ab139446), colorimetric thiopeptide substrate, OD412; conditions: remaining enzyme activity, untreated group = 100%; compound at 50 nM; n=2
T2 construct: purchased Abchem (so in the source)
T2 sequence (P08253 110-660): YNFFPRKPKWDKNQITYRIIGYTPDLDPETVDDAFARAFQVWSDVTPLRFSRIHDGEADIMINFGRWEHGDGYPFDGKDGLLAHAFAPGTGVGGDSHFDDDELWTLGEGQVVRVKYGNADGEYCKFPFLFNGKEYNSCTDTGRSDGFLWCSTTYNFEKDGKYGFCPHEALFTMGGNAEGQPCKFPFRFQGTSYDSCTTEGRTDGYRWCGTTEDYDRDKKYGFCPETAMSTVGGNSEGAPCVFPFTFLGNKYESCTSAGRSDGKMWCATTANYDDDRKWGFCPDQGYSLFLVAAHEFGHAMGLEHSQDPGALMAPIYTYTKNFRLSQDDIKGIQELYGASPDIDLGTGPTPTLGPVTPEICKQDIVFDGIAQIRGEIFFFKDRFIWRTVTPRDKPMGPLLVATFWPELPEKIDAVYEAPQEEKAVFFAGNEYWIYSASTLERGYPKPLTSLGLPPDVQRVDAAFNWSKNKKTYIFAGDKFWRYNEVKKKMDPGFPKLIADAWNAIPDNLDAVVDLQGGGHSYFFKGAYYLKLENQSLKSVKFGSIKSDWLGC
Method: Enzyme activity (%) at the same concentration was compared with treatment with 0.5 µM MMP-1 activity and 50 nM MMP-2 and MMP-9 activity (n=2). Here, enzyme activity (%) refers to the enzyme activity (%) of the experimental group when the untreated group is considered to have 100% enzyme activity. To evaluate the effect of the new compound on the enzyme activity, the color change was measured by following the provided protocol using a kit sold by Abchem as follows. […] Therefore, the change in OD412 level (OD value) per minute was measured and the value was obtained according to the enzyme activity calculation formula below. […] (ε=13,600 M^-1cm^-1 above pH 6.0) New compound enzyme activity(%) = (Vnew compound/Vuntreated group)*100 [formula] V = change in OD value per minute

MMP-9 = biological target: T3, MMP-9 (Homo sapiens, UniProt P14780); test: MMP9 Inhibitor Screening Assay Kit (ab139448), colorimetric thiopeptide substrate, OD412; conditions: compound at 50 nM; for remaining activity at 0.05 µM: remaining enzyme activity, untreated group = 100%, n=2; for inhibition at 0.05 µM: read-out: MMP-9 (%) at 50 nM (inhibitory activity)
T3 construct: purchased Abchem (so in the source)
T3 sequence (P14780 94-707): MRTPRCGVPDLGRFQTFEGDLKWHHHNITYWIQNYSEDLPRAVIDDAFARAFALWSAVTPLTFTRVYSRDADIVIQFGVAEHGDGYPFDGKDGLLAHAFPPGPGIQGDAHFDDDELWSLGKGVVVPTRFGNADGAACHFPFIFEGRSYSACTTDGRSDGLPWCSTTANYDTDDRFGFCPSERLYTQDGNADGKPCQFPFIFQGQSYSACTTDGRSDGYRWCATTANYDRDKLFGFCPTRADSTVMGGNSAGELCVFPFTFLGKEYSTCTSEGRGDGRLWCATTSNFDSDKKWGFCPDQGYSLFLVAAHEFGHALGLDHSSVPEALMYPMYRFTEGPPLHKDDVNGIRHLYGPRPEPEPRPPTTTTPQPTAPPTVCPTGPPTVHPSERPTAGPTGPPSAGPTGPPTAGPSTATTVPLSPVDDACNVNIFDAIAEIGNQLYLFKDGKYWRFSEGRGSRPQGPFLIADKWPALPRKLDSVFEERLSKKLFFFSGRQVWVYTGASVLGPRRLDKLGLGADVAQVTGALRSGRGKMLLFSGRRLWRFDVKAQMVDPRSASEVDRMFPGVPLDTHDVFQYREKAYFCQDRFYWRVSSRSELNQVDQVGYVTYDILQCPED
Method: Enzyme activity (%) at the same concentration was compared with treatment with 0.5 µM MMP-1 activity and 50 nM MMP-2 and MMP-9 activity (n=2). Here, enzyme activity (%) refers to the enzyme activity (%) of the experimental group when the untreated group is considered to have 100% enzyme activity. To evaluate the effect of the new compound on the enzyme activity, the color change was measured by following the provided protocol using a kit sold by Abchem as follows. Enzyme activity was obtained by comparing absorbance per minute with the untreated group. • MMP1 Inhibitor Screening Assay Kit (ab139443) • MMP2 Inhibitor Screening Assay Kit (ab139446) • MMP9 Inhibitor Screening Assay Kit (ab139448) As MMP activity increases, the substrate is decomposed and the OD412 level increases. Therefore, the change in OD412 level (OD value) per minute was measured and the value was obtained according to the enzyme activity calculation formula below. Here, OD412 means optical density or absorbance at 412 nm. • Thiopeptide (Ac-PLG-[2-mercapto-4-methyl-pentanoyl]-LG-OC2H5) as a chromogenic substrate. • The MMP cleavage site peptide bond was replaced by the thioester bond of the thiopeptide. • Hydrolysis of this bond by MMP generates a sulfhydryl group, which reacts with DTNB [5,5'-dithiobis(2-nitrobenzoic acid), Ellman's reagent] to form 2-nitro-5-thiobenzoic acid. , which can be measured by its absorbance at 412 nm. (ε=13,600 M^-1cm^-1 above pH 6.0) New compound enzyme activity(%) = (Vnew compound/Vuntreated group)*100 [formula] V = change in OD value per minute

MMP-2 [2] = biological target: T2, MMP-2; test: MMP2 Inhibitor Screening Assay Kit (ab139446), colorimetric thiopeptide substrate, OD412; conditions: T-05~20 at 10 uM; for inhibition at 10 µM: read-out: MMP-2 (%) (inhibitory efficacy, high concentration); for remaining activity at 10 µM: remaining enzyme activity, read-out: MMP-2 (%) (enzyme activity, high concentration)

Row | remaining activity at 0.5 µM (MMP-1) [%] | remaining activity at 0.05 µM (MMP-2 [1]) [%] | remaining activity at 0.05 µM (MMP-9) [%] | inhibition at 10 µM (MMP-1) [%] | remaining activity at 10 µM (MMP-1) [%] | inhibition at 10 µM (MMP-2 [2]) [%] | remaining activity at 10 µM (MMP-2 [2]) [%] | Compound | inhibition at 0.05 µM (MMP-9) [%]
1 | 34.2 | 81.6 | 79.1 |  |  |  |  | O=C(NO)C1CCCCN1S(=O)(=O)c1ccccc1 (centres unmarked) [T-01, N-hydroxy-1-(phenylsulfonyl)piperidine-2-carboxamide] | 
2 |  |  | 41.9 |  |  |  |  | O=C(NO)C1CCCCN1S(=O)(=O)c1ccc(-c2ccccc2)cc1 (centres unmarked) [T-02, 1-([1,1'-biphenyl]-4-ylsulfonyl)-N-hydroxypiperidine-2-carboxamide] | 
3 | 100 | 100 | 100 | 8.3 | 91.7 | 15.8 | 84.2 | Cc1cc(C)c(S(=O)(=O)N2CCCCC2C(=O)NO)c(C)c1 (centres unmarked) [T-05, N-hydroxy-1-(mesitylsulfonyl)piperidine-2-carboxamide] | 
4 | 100 | 100 | 100 | 12.8 | 87.2 | 0 | 100 | CC(C)(C)c1ccc(S(=O)(=O)NC(Cc2ccccc2)C(=O)NO)cc1 (centres unmarked) [T-08, 2-((4-(tert-butyl)phenyl)sulfonamido)-N-hydroxy-3-phenylpropanamide] | 
5 | 100 | 95.6 | 100 | 0 | 100 | 15.5 | 84.5 | Cc1cc(C)c(S(=O)(=O)NC(Cc2ccccc2)C(=O)NO)c(C)c1 (centres unmarked) [T-10, N-hydroxy-3-phenyl-2-((2,4,6-trimethylphenyl)sulfonamido)propanamide] | 
6 | 100 | 82.7 | 100 | 42.9 | 57.1 | 93.8 | 6.2 | O=C(NO)C(Cc1ccccc1)NS(=O)(=O)c1ccc2ccccc2c1 (centres unmarked) [T-11, N-hydroxy-2-(naphthalene-2-sulfonamido)-3-phenylpropanamide] | 
7 |  |  | 70.6 |  |  |  |  | CC(C)CC(NS(=O)(=O)c1ccc(-c2ccccc2)cc1)C(=O)NO (centres unmarked) [T-12, 2-([1,1'-biphenyl]-4-sulfonamido)-N-hydroxy-4-methylpentanamide] | 
8 | 100 | 100 | 100 | 0 | 100 | 71.9 | 28.1 | CC(C)CC(NS(=O)(=O)c1ccc(C(C)(C)C)cc1)C(=O)NO (centres unmarked) [T-13, 2-((4-(tert-butyl)phenyl)sulfonamido)-N-hydroxy-4-methylpentanamide] | 
9 | 100 | 100 | 100 | 0 | 100 | 34.8 | 65.2 | Cc1cc(C)c(S(=O)(=O)NC(CC(C)C)C(=O)NO)c(C)c1 (centres unmarked) [T-15, N-hydroxy-4-methyl-2-((2,4,6-trimethylphenyl)sulfonamido)pentanamide] | 
10 | 100 | 99.9 | 100 | 0 | 100 | 0 | 100 | CC(C)C(NS(=O)(=O)c1ccc(C(C)(C)C)cc1)C(=O)NO (centres unmarked) [T-18, 2-((4-(tert-butyl)phenyl)sulfonamido)-N-hydroxy-3-methylbutanamide] | 
11 | 100 | 97.8 | 100 | 0 | 100 | 59.9 | 40.1 | Cc1cc(C)c(S(=O)(=O)NC(C(=O)NO)C(C)C)c(C)c1 (centres unmarked) [T-20, N-hydroxy-3-methyl-2-((2,4,6-trimethylphenyl)sulfonamido)butanamide] | 0
12 | 9.2 | 81.1 | 100 |  |  |  |  | O=C(NO)C1CCCCN1S(=O)(=O)c1ccc(F)cc1 (centres unmarked) [T-21, 1-((4-fluorophenyl)sulfonyl)-N-hydroxypiperidine-2-carboxamide] | 
13 | 78.4 | 57.7 | 99 |  |  |  |  | CCCc1ccc(S(=O)(=O)N2CCCCC2C(=O)NO)cc1 (centres unmarked) [T-24, N-hydroxy-1-((4-propylphenyl)sulfonyl)piperidine-2-carboxamide] | 
14 |  |  | 19.9 |  |  |  |  | CC(=NO)c1ccc(S(=O)(=O)N2CCCCC2C(=O)NO)cc1 (centres unmarked) [T-35, N-hydroxy-1-((4-(1-(hydroxyimino)ethyl)phenyl)sulfonyl)piperidine-2-carboxamide] | 
15 | 98.2 | 100 | 97.4 |  |  |  |  | CC(C)CC(NS(=O)(=O)c1ccccc1)C(=O)NO (centres unmarked) [T-36, N-hydroxy-4-methyl-2-(phenylsulfonamido)pentanamide] | 
16 | 100 | 100 | 100 |  |  |  |  | CC(=O)Nc1ccc(S(=O)(=O)N2CCCC2C(=O)NO)cc1 (centres unmarked) [T-40, 1-((4-acetamidophenyl)sulfonyl)-N-hydroxypyrrolidine-2-carboxamide] | 

Row | Compound | remaining activity at 0.5 µM (MMP-1) [%] | remaining activity at 0.05 µM (MMP-2 [1]) [%] | remaining activity at 0.05 µM (MMP-9) [%] | inhibition at 10 µM (MMP-1) [%] | remaining activity at 10 µM (MMP-1) [%] | inhibition at 10 µM (MMP-2 [2]) [%] | remaining activity at 10 µM (MMP-2 [2]) [%] | inhibition at 0.05 µM (MMP-9) [%]
17 | CCCCOc1ccc(S(=O)(=O)N2CCCCC2C(=O)NO)cc1 (centres unmarked) [T-04, 1-((4-butoxyphenyl)sulfonyl)-N-hydroxypiperidine-2-carboxamide] |  |  | 0 |  |  |  |  | 
18 | CCCCOc1ccc(S(=O)(=O)NC(CC(C)C)C(=O)NO)cc1 (centres unmarked) [T-14, 2-((4-butoxyphenyl)sulfonamido)-N-hydroxy-4-methylpentanamide] | 100 | 0 | 73.5 |  |  |  |  | 26.5
19 | CCCCOc1ccc(S(=O)(=O)N2CCCC2C(=O)NO)cc1 (centres unmarked) [T-29, 1-((4-butoxyphenyl)sulfonyl)-N-hydroxypyrrolidine-2-carboxamide] | 100 | 18.9 | 50.2 |  |  |  |  | 
